In the first assay the target is T1, purified ITK (Invitrogen PV3875) (Homo sapiens, UniProt Q08881).
T1 construct: purchased Invitrogen PV3875
T1 sequence (Q08881 1-620): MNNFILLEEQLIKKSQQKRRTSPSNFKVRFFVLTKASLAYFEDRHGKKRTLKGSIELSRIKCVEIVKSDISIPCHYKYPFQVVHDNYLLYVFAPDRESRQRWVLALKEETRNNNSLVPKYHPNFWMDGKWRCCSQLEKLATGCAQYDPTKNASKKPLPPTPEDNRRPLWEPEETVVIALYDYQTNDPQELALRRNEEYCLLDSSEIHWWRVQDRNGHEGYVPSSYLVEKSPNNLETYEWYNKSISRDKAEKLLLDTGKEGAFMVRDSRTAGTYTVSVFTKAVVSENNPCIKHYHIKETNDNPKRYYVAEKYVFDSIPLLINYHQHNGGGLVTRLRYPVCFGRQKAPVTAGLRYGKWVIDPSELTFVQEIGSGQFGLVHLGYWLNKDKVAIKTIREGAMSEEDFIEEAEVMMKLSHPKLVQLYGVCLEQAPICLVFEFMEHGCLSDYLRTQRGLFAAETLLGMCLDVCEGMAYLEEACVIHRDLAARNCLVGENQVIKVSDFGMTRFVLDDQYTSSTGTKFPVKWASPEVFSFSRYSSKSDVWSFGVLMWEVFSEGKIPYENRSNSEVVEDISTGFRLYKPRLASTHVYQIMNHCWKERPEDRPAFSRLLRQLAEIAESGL
As to the kind of experiment: ITK peptide phosphorylation assay (Caliper LabChip or LCMS). The format is biochemical. The following applies: Table 2, Examples 1-140, class symbols. In short, it runs like this: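 Purified human ITK peptide phosphorylation, quenched with EDTA (50 mM final) for Caliper LabChip separation or TCA (5% v/v final) for UPLC-MS/MS MRM quantification. Ki derived via Morrison tight-binding equation, corrected for competitive inhibition using ATP concentration relative to Km,app.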
For orientation: Ki means the dissociation constant of the complex between target and ligand, obtained from inhibition or displacement. Lower therefore signals a stronger hold on the target. Regarding `O=C(Nc1cnn(Cc2cccc(CNC3CCC3)c2)c1)c1n[nH]c2ccccc12` [Example 94, N-(1-(3-((cyclobutylamino)methyl)benzyl)-1H-pyrazol-4-yl)-1H-indazole-3-carboxamide], the Ki was in the range of 1 to 100 nM.
On the same count and under the same terms, in the case of `O=C(Nc1cnn(Cc2cccc(CNCC3CC3)c2)c1)c1n[nH]c2ccccc12` [Example 95, N-(1-(3-((cyclopropylmethylamino)methyl)benzyl)-1H-pyrazol-4-yl)-1H-indazole-3-carboxamide] it was 1 to 100 nM.
The compound `O=C(Nc1cnn(Cc2cccc(CNCCO)c2)c1)c1n[nH]c2ccccc12` [Example 96, N-(1-(3-((2-hydroxyethylamino)methyl)benzyl)-1H-pyrazol-4-yl)-1H-indazole-3-carboxamide] registered a Ki of 1 to 100 nM.
`CCCNCc1cccc(Cn2cc(NC(=O)c3n[nH]c4ccccc34)cn2)c1` [Example 97, N-(1-(3-((propylamino)methyl)benzyl)-1H-pyrazol-4-yl)-1H-indazole-3-carboxamide] registered a Ki of 1 to 100 nM.
For the compound `O=C(Nc1cnn(Cc2cccc(CNC3CC3)c2)c1)c1n[nH]c2ccccc12` [Example 98, N-(1-(3-((cyclopropylamino)methyl)benzyl)-1H-pyrazol-4-yl)-1H-indazole-3-carboxamide], the Ki fell in the range of 1 to 100 nM.
On to `CCNCc1cccc(Cn2cc(NC(=O)c3n[nH]c4ccccc34)cn2)c1` [Example 99, N-(1-(3-((ethylamino)methyl)benzyl)-1H-pyrazol-4-yl)-1H-indazole-3-carboxamide], for which the Ki is 1 to 100 nM.
Compound `CN(CCC#N)Cc1cccc(Cn2cc(NC(=O)c3n[nH]c4ccccc34)cn2)c1` [Example 100, N-(1-(3-(((2-cyanoethyl)(methyl)amino)methyl)benzyl)-1H-pyrazol-4-yl)-1H-indazole-3-carboxamide] had a Ki of 1 to 100 nM.
For the compound `CNCc1cccc(Cn2cc(NC(=O)c3n[nH]c4ccccc34)cn2)c1` [Example 101, N-(1-(3-((methylamino)methyl)benzyl)-1H-pyrazol-4-yl)-1H-indazole-3-carboxamide], the Ki fell in the range of 1 to 100 nM.
On the same count and under the same terms, the value for `CN(C)CCNCc1cccc(Cn2cc(NC(=O)c3n[nH]c4ccccc34)cn2)c1` [Example 102, N-(1-(3-((2-(dimethylamino)ethylamino)methyl)benzyl)-1H-pyrazol-4-yl)-1H-indazole-3-carboxamide] was 1 to 100 nM.
On the same count and under the same terms, the value for `O=C(Nc1cnn(Cc2ccc(CN3CCC3)cc2)c1)c1n[nH]c2ccccc12` [Example 103, N-(1-(4-(azetidin-1-ylmethyl)benzyl)-1H-pyrazol-4-yl)-1H-indazole-3-carboxamide] was 1 to 100 nM; that for `CN(C)CCNCc1ccc(Cn2cc(NC(=O)c3n[nH]c4ccccc34)cn2)cc1` [Example 104, N-(1-(4-((2-(dimethylamino)ethylamino)methyl)benzyl)-1H-pyrazol-4-yl)-1H-indazole-3-carboxamide] was 1 to 100 nM.
`O=C(Nc1cnn(Cc2ccc(CNCC(F)F)cc2)c1)c1n[nH]c2ccccc12` [Example 105, N-(1-(4-((2,2-difluoroethylamino)methyl)benzyl)-1H-pyrazol-4-yl)-1H-indazole-3-carboxamide] showed a Ki of 1 to 100 nM.
The compound `CC(O)CNCc1ccc(Cn2cc(NC(=O)c3n[nH]c4ccccc34)cn2)cc1` (stereo not shown) [Example 106, N-(1-(4-((2-hydroxypropylamino)methyl)benzyl)-1H-pyrazol-4-yl)-1H-indazole-3-carboxamide] displayed a Ki of 1 to 100 nM.
Turning to `O=C(Nc1cnn(Cc2ccc(CNC3CCC3)cc2)c1)c1n[nH]c2ccccc12` [Example 107, N-(1-(4-((cyclobutylamino)methyl)benzyl)-1H-pyrazol-4-yl)-1H-indazole-3-carboxamide], the Ki lay in the range of 1 to 100 nM.
`O=C(Nc1cnn(Cc2ccc(CNCC3CC3)cc2)c1)c1n[nH]c2ccccc12` [Example 108, N-(1-(4-((cyclopropylmethylamino)methyl)benzyl)-1H-pyrazol-4-yl)-1H-indazole-3-carboxamide] yielded a Ki of 1 to 100 nM.
The same measure, in the same setting: the value for `CCCNCc1ccc(Cn2cc(NC(=O)c3n[nH]c4ccccc34)cn2)cc1` [Example 109, N-(1-(4-((propylamino)methyl)benzyl)-1H-pyrazol-4-yl)-1H-indazole-3-carboxamide] was 1 to 100 nM; that for `CCNCc1ccc(Cn2cc(NC(=O)c3n[nH]c4ccccc34)cn2)cc1` [Example 110, N-(1-(4-((ethylamino)methyl)benzyl)-1H-pyrazol-4-yl)-1H-indazole-3-carboxamide] was 1 to 100 nM.
With `CN(CCC#N)Cc1ccc(Cn2cc(NC(=O)c3n[nH]c4ccccc34)cn2)cc1` [Example 111, N-(1-(4-(((2-cyanoethyl)(methyl)amino)methyl)benzyl)-1H-pyrazol-4-yl)-1H-indazole-3-carboxamide], the Ki is 1 to 100 nM.
Still for that read-out and setting: the value for `CNCc1ccc(Cn2cc(NC(=O)c3n[nH]c4ccccc34)cn2)cc1` [Example 112, N-(1-(4-((methylamino)methyl)benzyl)-1H-pyrazol-4-yl)-1H-indazole-3-carboxamide] was 1 to 100 nM; that for `CC(C)(O)CNCc1ccc(Cn2cc(NC(=O)c3n[nH]c4ccccc34)cn2)cc1` [Example 113, N-(1-(4-((2-hydroxy-2-methylpropylamino)methyl)benzyl)-1H-pyrazol-4-yl)-1H-indazole-3-carboxamide] was 1 to 100 nM.
The same measure, in the same setting: in the case of `O=C(Nc1cnn(Cc2ccc(CN3CCC(O)C3)cc2)c1)c1n[nH]c2ccccc12` (stereo not shown) [Example 114, N-(1-(4-((3-hydroxypyrrolidin-1-yl)methyl)benzyl)-1H-pyrazol-4-yl)-1H-indazole-3-carboxamide] it was 1 to 100 nM; in that of `CN(C)Cc1ccc(Cn2cc(NC(=O)c3n[nH]c4ccccc34)cn2)cc1` [Example 115, N-(1-(4-((dimethylamino)methyl)benzyl)-1H-pyrazol-4-yl)-1H-indazole-3-carboxamide], 1 to 100 nM.
The compound `COc1ccc(-c2ccc3c(C(=O)Nc4cnn(Cc5cccc(C#N)c5)c4)n[nH]c3c2)cn1` [Example 117, N-(1-(3-cyanobenzyl)-1H-pyrazol-4-yl)-6-(6-methoxypyridin-3-yl)-1H-indazole-3-carboxamide] had a Ki of 1 to 100 nM.
`Cc1ncccc1-c1ccc2c(C(=O)Nc3cnn(Cc4cccc(C#N)c4)c3)n[nH]c2c1` [Example 118, N-(1-(3-cyanobenzyl)-1H-pyrazol-4-yl)-6-(2-methylpyridin-3-yl)-1H-indazole-3-carboxamide] registered a Ki of more than 100 nM.
`Cc1ccc(-c2ccc3c(C(=O)Nc4cnn(Cc5cccc(C#N)c5)c4)n[nH]c3c2)cn1` [Example 120, N-(1-(3-cyanobenzyl)-1H-pyrazol-4-yl)-6-(6-methylpyridin-3-yl)-1H-indazole-3-carboxamide] returned a Ki of 1 to 100 nM.
With `Cn1cc(-c2ccc3c(C(=O)Nc4cnn(Cc5cccc(C#N)c5)c4)n[nH]c3c2)cn1` [Example 121, N-(1-(3-cyanobenzyl)-1H-pyrazol-4-yl)-6-(1-methyl-1H-pyrazol-4-yl)-1H-indazole-3-carboxamide], the Ki was in the range of 1 to 100 nM.
Compound `CC(c1ccccc1)n1cc(NC(=O)c2n[nH]c3ccccc23)cn1` (stereo not shown) [Example 131, N-(1-(1-phenylethyl)-1H-pyrazol-4-yl)-1H-indazole-3-carboxamide] gave a Ki of 1 to 100 nM.
For the compound `CN(C)CC(c1ccccc1)n1cc(NC(=O)c2n[nH]c3cc(-c4cn[nH]c4)ccc23)cn1` (stereo not shown) [Example 135, N-(1-(2-(dimethylamino)-1-phenylethyl)-1H-pyrazol-4-yl)-6-(1H-pyrazol-4-yl)-1H-indazole-3-carboxamide], the inhibitory constant (Ki) is 0.01 to 1 nM.
Take `CC[C@@H](c1ccccc1)n1cc(NC(=O)c2n[nH]c3cc(-c4ccc(N)nc4)ccc23)cn1` [Example 136, (S)-6-(6-aminopyridin-3-yl)-N-(1-(1-phenylpropyl)-1H-pyrazol-4-yl)-1H-indazole-3-carboxamide]: the Ki fell in the range of 1 to 100 nM.
With `CC[C@@H](c1ccccc1)n1cc(NC(=O)c2n[nH]c3cc(-c4cc[nH]n4)ccc23)cn1` [Example 137, (S)—N-(1-(1-phenylpropyl)-1H-pyrazol-4-yl)-6-(1H-pyrazol-3-yl)-1H-indazole-3-carboxamide], the Ki was 1 to 100 nM.
Take `CC[C@@H](c1ccccc1)n1cc(NC(=O)c2n[nH]c3cc(-c4cncnc4)ccc23)cn1` [Example 138, (S)—N-(1-(1-phenylpropyl)-1H-pyrazol-4-yl)-6-(pyrimidin-5-yl)-1H-indazole-3-carboxamide]: the Ki was 1 to 100 nM.
`CC[C@@H](c1ccccc1)n1cc(NC(=O)c2n[nH]c3cc(-c4cccnc4)ccc23)cn1` [Example 139, (S)—N-(1-(1-phenylpropyl)-1H-pyrazol-4-yl)-6-(pyridin-3-yl)-1H-indazole-3-carboxamide] returned a Ki of 1 to 100 nM.
In turn, `CC[C@@H](c1ccccc1)n1cc(NC(=O)c2n[nH]c3cc(-c4ccncc4)ccc23)cn1` [Example 140, (S)—N-(1-(1-phenylpropyl)-1H-pyrazol-4-yl)-6-(pyridin-4-yl)-1H-indazole-3-carboxamide] had a Ki of 1 to 100 nM.

Still in this assay, the particulars now being: Table 3, specific values for certain examples.
As for `O=C(Nc1cnn(Cc2cccc(CNCCO)c2)c1)c1n[nH]c2ccccc12` [Example 96, N-(1-(3-((2-hydroxyethylamino)methyl)benzyl)-1H-pyrazol-4-yl)-1H-indazole-3-carboxamide], affinity was put at a Ki of 38.7 nM.
As for `Cc1ncccc1-c1ccc2c(C(=O)Nc3cnn(Cc4cccc(C#N)c4)c3)n[nH]c2c1` [Example 118, N-(1-(3-cyanobenzyl)-1H-pyrazol-4-yl)-6-(2-methylpyridin-3-yl)-1H-indazole-3-carboxamide], the Ki came to 110 nM.
On the same count and under the same terms, in the case of `CC[C@@H](c1ccccc1)n1cc(NC(=O)c2n[nH]c3cc(-c4cc[nH]n4)ccc23)cn1` [Example 137, (S)—N-(1-(1-phenylpropyl)-1H-pyrazol-4-yl)-6-(1H-pyrazol-3-yl)-1H-indazole-3-carboxamide] it was 9.9 nM; in that of `CC[C@@H](c1ccccc1)n1cc(NC(=O)c2n[nH]c3cc(-c4cncnc4)ccc23)cn1` [Example 138, (S)—N-(1-(1-phenylpropyl)-1H-pyrazol-4-yl)-6-(pyrimidin-5-yl)-1H-indazole-3-carboxamide], 5.6 nM.

(Values after US20140309210A1, “INDAZOLE COMPOUNDS, COMPOSITIONS AND METHODS OF USE THEREOF” (Genentech, Inc., priority 2011, published 2014).)
